Source: patent US8772500B2, “TRPV3 modulators” (AbbVie Inc., priority 2011, dated 2014)
Read-outs that look alike come from different tables or passages of the source.

Key:
human TRPV3 = target: T1, human TRPV3 (Homo sapiens, UniProt Q8NET8); assay: In vitro antagonism of recombinant human TRPV3 activation (FLIPR Tetra calcium assay, 2-APB as agonist); type: cell-based; settings: HEK293 cells stably expressing human TRPV3, 2-APB 80 μM
T1 construct: expressed in transfected cells
T1 sequence (Q8NET8 1-790): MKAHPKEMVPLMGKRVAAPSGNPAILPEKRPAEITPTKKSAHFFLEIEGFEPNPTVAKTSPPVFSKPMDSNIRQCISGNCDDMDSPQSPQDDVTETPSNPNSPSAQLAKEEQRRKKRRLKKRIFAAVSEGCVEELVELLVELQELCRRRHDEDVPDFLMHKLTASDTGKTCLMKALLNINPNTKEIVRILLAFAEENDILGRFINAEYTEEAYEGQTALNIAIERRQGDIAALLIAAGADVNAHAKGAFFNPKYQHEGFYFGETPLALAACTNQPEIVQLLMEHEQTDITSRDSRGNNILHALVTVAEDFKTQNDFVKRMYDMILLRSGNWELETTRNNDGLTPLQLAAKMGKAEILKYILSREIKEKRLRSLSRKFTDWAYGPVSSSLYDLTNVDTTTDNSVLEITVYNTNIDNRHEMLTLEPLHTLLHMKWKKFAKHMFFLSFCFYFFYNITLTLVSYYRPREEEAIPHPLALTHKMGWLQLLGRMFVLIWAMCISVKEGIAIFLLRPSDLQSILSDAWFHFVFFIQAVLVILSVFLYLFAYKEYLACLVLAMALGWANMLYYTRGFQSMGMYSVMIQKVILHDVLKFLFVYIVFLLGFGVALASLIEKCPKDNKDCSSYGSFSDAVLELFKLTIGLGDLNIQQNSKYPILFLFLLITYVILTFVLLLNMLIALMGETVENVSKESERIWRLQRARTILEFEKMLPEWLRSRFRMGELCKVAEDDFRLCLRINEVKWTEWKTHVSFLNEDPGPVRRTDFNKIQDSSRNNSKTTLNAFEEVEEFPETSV
How it was run: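 HEK293 cells stably expressing human TRPV3, loaded with Calcium-4 dye for 90-120 min; compound added 3 min before 2-APB at 80 μM (its EC80). Fluorescence (max minus min) over 10 min expressed as % of maximal 2-APB response without antagonist; IC50 mostly averaged from n≧2 runs.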

[1] = In vitro human microsomal stability assay; type: in vitro ADME
How it was run: (§1)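 Liver microsomes: Sprague-Dawley rat for rat assay, human for human assay; 37 °C; NADPH cofactor, also spiked into time-zero plates.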

[2] = In vitro rat microsomal stability assay; type: in vitro ADME, rat (Sprague-Dawley)
How it was run: as §1

[3] = range class, read-out: IC50 (reported range)
[4] = Sprague-Dawley, rat, 0.5 h, 0.5 μM, pH 7.4
[5] = 0.5 μM substrate, 0.25 mg/mL microsomal protein, pH 7.4, 37° C., NADPH, 30 minutes
[6] = mostly average of n≧2, read-out: IC50 (actual measured value, shown parenthetically)

| Compound | IC50 (human TRPV3; [3]) [µM] | HUMAN MICROSOMAL STABILITY (% REMAINING AFTER 30 MINUTES) ([1]; human, 0.5 h, 0.5 μM, pH 7.4) [%] | RAT MICROSOMAL STABILITY (% REMAINING AFTER 30 MINUTES) [2, 4] [%] | HUMAN […] (% REMAINING AFTER 30 MINUTES) [1, 5] [%] | RAT […] (% REMAINING AFTER 30 MINUTES) [2, 5] [%] | IC50 (human TRPV3; [6]) [µM] | HUMAN MICROSOMAL STABILITY (% REMAINING AFTER 30 MINUTES) [1, 5] [%] | RAT MICROSOMAL STABILITY (% REMAINING AFTER 30 MINUTES) [2, 5] [%] |
| --- | --- | --- | --- | --- | --- | --- | --- | --- |
| CC(C)(C)OC(=O)N1CCC(C2(C(O)c3ccccn3)CCC2)CC1 (centres unmarked) [Example 279, tert-butyl 4-{1-[hydroxy(pyridin-2-yl)methyl]cyclobutyl}piperidine-1-carboxylate] | 5.1 to 20 | 22 | <0.01 | – | – | – | – | – |
| O[C@H](c1ccccn1)[C@]1(c2cccc(C(F)(F)F)c2)C[C@H](O)C1 (relative stereo) [Example 259, cis-3-[(S)-hydroxy(pyridin-2-yl)methyl]-3-[3-(trifluoromethyl)phenyl]-cyclobutanol] | 0.05 to 0.5 | – | – | 76 | 73 | – | – | – |
| OC1CC(c2ccc(C(F)(F)F)cc2)([C@H](O)c2ccccn2)C1 (stereo partly drawn) [Example 166, 3-[(S)-hydroxy(pyridin-2-yl)methyl]-3-[4-(trifluoromethyl)phenyl]-cyclobutanol] | 5.1 to 20 | >85 | >85 | – | – | – | – | – |
| OC(c1ccccn1)C1(C2=CCCOC2)CCC1 (single isomer, unassigned) [Example 269, [1-(5,6-dihydro-2H-pyran-3-yl)cyclobutyl](pyridin-2-yl)methanol] | 5.1 to 20 | 40 | 12 | – | – | 11.2 | – | – |
| OC(c1ccccn1)C1(c2cccc(C(F)(F)F)n2)CCC1 (centres unmarked) [Example 234, pyridin-2-yl{1-[6-(trifluoromethyl)pyridin-2-yl]cyclobutyl}methanol] | 5.1 to 20 | 19 | 23 | – | – | – | – | – |
| CC(=O)O[C@H](c1ccccn1)C1(c2ccc(OC(F)(F)F)cc2)CCC1 [Example 288, (S)-pyridin-2-yl{1-[4-(trifluoromethoxy)phenyl]cyclobutyl}methyl acetate] | 5.1 to 20 | <0.01 | <0.01 | – | – | – | – | – |
| O=C1CC(c2cc(C(F)(F)F)ccn2)([C@@H](O)c2ccccn2)C1 [Example 278, 3-[(R)-hydroxy(pyridin-2-yl)methyl]-3-[4-(trifluoromethyl)pyridin-2-yl]-cyclobutanone] | 5.1 to 20 | 83 | >85 | – | – | – | – | – |
| OC(c1ccccn1)C1(C2=CCC(F)(F)CC2)CCC1 (centres unmarked) [Example 260, [1-(4,4-difluorocyclohex-1-en-1-yl)cyclobutyl](pyridin-2-yl)methanol] | 5.1 to 20 | 12 | <0.01 | – | – | – | – | – |
| OC(c1ccccn1)C1(c2ccc(F)cc2)CCC1 (centres unmarked) [Example 3, [1-(4-fluorophenyl)cyclobutyl](pyridin-2-yl)methanol] | 0.501 to 1 | 28 | 3.8 | – | – | – | – | – |
| OC(CC1(c2ccc(C(F)(F)F)cc2)CCC1)c1ccccn1 (centres unmarked) [Example 75, 1-(pyridin-2-yl)-2-{1-[4-(trifluoromethyl)phenyl]cyclobutyl}ethanol] | 0.501 to 1 | 44 | 0.74 | – | – | – | – | – |
| N[C@@H]1CCC[C@H]1[C@@H](O)C1(c2ccc(Cl)cc2)CCC1 [Example 224, (R)-[(1R,2R)-2-aminocyclopentyl][1-(4-chlorophenyl)cyclobutyl]methanol] | 1.1 to 5 | >85 | 70 | – | – | – | – | – |
| OC1CC(c2cc(C(F)(F)F)ccn2)(C(O)c2ccccn2)C1 [Example 283, trans-3-[(S)-hydroxy(pyridin-2-yl)methyl]-3-[4-(trifluoromethyl)pyridin-2-yl]cyclobutanol] | 0.501 to 1 | >85 | >85 | – | – | – | – | – |
| O[C@@H](c1ncccn1)C1(c2ccc(Cl)c(Cl)c2)CCC1 [Example 40, (R)-[1-(3,4-dichlorophenyl)cyclobutyl](pyrimidin-2-yl)methanol] | 5.1 to 20 | 68 | 5.6 | – | – | – | – | – |
| OC(c1ccccn1)C1(c2cccc(OC(F)(F)F)c2)CCCO1 (stereo not drawn) [Example 92, (anti)-pyridin-2-yl{2-[3-(trifluoromethoxy)phenyl]tetrahydrofuran-2-yl}-methanol] | 0.05 to 0.5 | 2.7 | 0.23 | – | – | – | – | – |
| pyridin-2-yl{1-[5-(trifluoromethyl)pyridin-3-yl]cyclobutyl}methanol [Example 110] | 0.05 to 0.5 | – | – | – | – | 0.5 | 8.0 | 2.8 |
| OC(CC1(c2cccc(C(F)(F)F)c2)CCC1)c1ccccn1 (centres unmarked) [Example 74, 1-(pyridin-2-yl)-2-{1-[3-(trifluoromethyl)phenyl]cyclobutyl}ethanol] | 0.05 to 0.5 | 6.8 | 0.45 | – | – | – | – | – |
| Cl.O[C@H](c1ccccn1)C1(c2ccc(Cl)c(Cl)c2)CC(F)(F)C1 [Example 111, (S)-[1-(3,4-dichlorophenyl)-3,3-difluorocyclobutyl](pyridin-2-yl)methanol hydrochloride] | 0.05 to 0.5 | – | – | – | – | – | 52 | 23 |
| OC(c1ccccn1)C1(c2ccc(C(F)(F)F)c(F)c2)CCC1 (centres unmarked) [Example 17] | 1.1 to 5 | 21 | 13 | – | – | – | – | – |
| NC1CCCCC1C(O)C1(c2cccc(C(F)(F)F)c2)CCC1 (centres unmarked) [Example 212, (2-aminocyclohexyl){1-[3-(trifluoromethyl)phenyl]cyclobutyl}methanol] | 1.1 to 5 | >85 | 3.9 | – | – | – | – | – |
| CC(c1ccccc1Cl)C1(C(O)c2ccccn2)CCC1 (centres unmarked) [Example 50, {1-[1-(2-chlorophenyl)ethyl]cyclobutyl}(pyridin-2-yl)methanol] | 1.1 to 5 | 0.08 | 0.18 | – | – | – | – | – |
| OC(c1ccccn1)C1(C2=CCCC(C(F)(F)F)C2)CCC1 (centres unmarked) [Example 261, pyridin-2-yl{1-[5-(trifluoromethyl)cyclohex-1-en-1-yl]cyclobutyl}methanol] | 1.1 to 5 | 0.01 | <0.01 | – | – | – | – | – |
| O=C1CC(c2cccc(OC(F)(F)F)c2)(C(O)c2ccccn2)C1 (centres unmarked) [Example 237, 3-[hydroxy(pyridin-2-yl)methyl]-3-[3-(trifluoromethoxy)phenyl]-cyclobutanone] | 1.1 to 5 | 51 | 50 | – | – | – | – | – |
| N[C@H]1CCC[C@H]1[C@H](O)C1(c2ccc(Cl)c(Cl)c2)CCC1 [Example 217, (S)-[(1R,2S)-2-aminocyclopentyl][1-(3,4-dichlorophenyl)cyclobutyl]-methanol] | 1.1 to 5 | 73 | 68 | – | – | – | – | – |
